From PubChem BioAssay AID2060883 (Molecular Pharmacology Branch, DTP, NCI, 2025)
Values joined by “and” are separate entries in the source; they are usually repeats but may differ in a detail not shown here. Equal values may be shown once.

System: 843782-103-R-J1-PDC complex spheroid viability
Assay: Anticancer human tumor 843782-103-R-J1-PDC patient-derived lung adenocarcinoma cell line growth inhibition [RAS]
Conditions: for viability, T/C: stronger effect = lower value
Method in brief: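 Agents were tested in combination matrices in half-log decrements from a top concentration at or near clinical Cmax (10 microM if undetermined). Targets were multi-cell spheroids of tumour lines plus HUVEC and MSC stromal cells.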

[1] = curve of first compound, second compound 0.00316 µM
[2] = curve of first compound, second compound 0.01 µM
[3] = curve of first compound, second compound 0.0316 µM
[4] = curve of first compound, second compound 0.1 µM
[5] = curve of first compound, second compound 0.316 µM
[6] = curve of first compound, second compound 1 µM
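Further: viability read after seven days of compound exposure.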

Molecule CC1(C)CCC(Nc2ncc(C(F)(F)F)c(-c3c[nH]c4c(P(C)(C)=O)c(C#N)ccc34)n2)CN1 (stereo unspecified) + C=CC(=O)N1CCN(c2nc(OCC3CCCN3C)nc3c(F)c(-c4nc(N)cc(C)c4C(F)(F)F)c(Cl)cc23)C(C)C1 has an IC50 [1] of 0.00662 µM, an IC50 [2] of 0.00723 µM and an IC50 [3] of 0.00799 µM. For the same molecule, the IC50 [4] was 0.00581 µM, the IC50 [5] was 0.00675 µM and the IC50 [6] was 0.00696 µM. For the same molecule, the viability, T/C (second compound 0.00316 µM, first compound 0.000949 µM) was 85.3%, the viability, T/C (second compound 0.00316 µM, first compound 0.003 µM) was 72.8% and the viability, T/C (second compound 0.00316 µM, first compound 0.00949 µM) was 38.8%. The viability, T/C (second compound 0.00316 µM, first compound 0.03 µM) was 25.7%, the viability, T/C (second compound 0.00316 µM, first compound 0.0949 µM) was 13.6% and the viability, T/C (second compound 0.00316 µM, first compound 0.3 µM) was 21.5%. For the same molecule, the viability, T/C (second compound 0.01 µM, first compound 0.000949 µM) was 89.1%, the viability, T/C (second compound 0.01 µM, first compound 0.003 µM) was 75.6% and the viability, T/C (second compound 0.01 µM, first compound 0.00949 µM) was 42%. It also gave a viability, T/C (second compound 0.01 µM, first compound 0.03 µM) of 23%, a viability, T/C (second compound 0.01 µM, first compound 0.0949 µM) of 18.5% and a viability, T/C (second compound 0.01 µM, first compound 0.3 µM) of 18.8%. The viability, T/C (second compound 0.0316 µM, first compound 0.000949 µM) was 82.7%, the viability, T/C (second compound 0.0316 µM, first compound 0.003 µM) was 81.2% and the viability, T/C (second compound 0.0316 µM, first compound 0.00949 µM) was 44.5%. For the same molecule, the viability, T/C (second compound 0.0316 µM, first compound 0.03 µM) was 22.1%, the viability, T/C (second compound 0.0316 µM, first compound 0.0949 µM) was 20.6% and the viability, T/C (second compound 0.0316 µM, first compound 0.3 µM) was 18%. For the same molecule, the viability, T/C (second compound 0.1 µM, first compound 0.000949 µM) was 87.8%, the viability, T/C (second compound 0.1 µM, first compound 0.003 µM) was 70% and the viability, T/C (second compound 0.1 µM, first compound 0.00949 µM) was 35.7%. The viability, T/C (second compound 0.1 µM, first compound 0.03 µM) was 18.3%, the viability, T/C (second compound 0.1 µM, first compound 0.0949 µM) was 19.3% and the viability, T/C (second compound 0.1 µM, first compound 0.3 µM) was 18.9%. For the same molecule, the viability, T/C (second compound 0.316 µM, first compound 0.000949 µM) was 87.3%, the viability, T/C (second compound 0.316 µM, first compound 0.003 µM) was 72.7% and the viability, T/C (second compound 0.316 µM, first compound 0.00949 µM) was 40.9%. For the same molecule, the viability, T/C (second compound 0.316 µM, first compound 0.03 µM) was 21.7%, the viability, T/C (second compound 0.316 µM, first compound 0.0949 µM) was 19.3% and the viability, T/C (second compound 0.316 µM, first compound 0.3 µM) was 19.6%. It also gave a viability, T/C (second compound 1 µM, first compound 0.000949 µM) of 95.3%, a viability, T/C (second compound 1 µM, first compound 0.003 µM) of 69.8% and a viability, T/C (second compound 1 µM, first compound 0.00949 µM) of 45%. The viability, T/C (second compound 1 µM, first compound 0.03 µM) was 23.5%, the viability, T/C (second compound 1 µM, first compound 0.0949 µM) was 19.5% and the viability, T/C (second compound 1 µM, first compound 0.3 µM) was 23.7%.

For C#Cc1c(F)ccc2cc(O)cc(-c3ncc4c(N5CC6CCC(C5)N6)nc(OCC56CCCN5CC(F)C6)nc4c3F)c12 (stereo unspecified), the viability, T/C (compound 0.0316 µM) was 104% [middle of 8 runs], the viability, T/C (compound 0.1 µM) was 106% [middle of 8 runs] and the viability, T/C (compound 0.316 µM) was 106% [middle of 8 runs]. For the same molecule, the viability, T/C (compound 1 µM) was 101% [middle of 8 runs], the viability, T/C (compound 3.16 µM) was 85.1% [middle of 8 runs] and the viability, T/C (compound 10 µM) was 59.7% [middle of 8 runs]. The IC50 (compound alone, run of 09/09/2024) was > 10 µM and 8.73 µM.

CC(C)NCC(C(=O)N1CCN(c2ncnc3c2C(C)CC3O)CC1)c1ccc(Cl)cc1 (stereo unspecified) + C=CC(=O)N1CCN(c2nc(OCC3CCCN3C)nc3c(F)c(-c4nc(N)cc(C)c4C(F)(F)F)c(Cl)cc23)C(C)C1 gave an IC50 [1] of 0.726 µM, an IC50 [2] of 0.711 µM and an IC50 [3] of 0.672 µM. It also gave an IC50 [4] of 0.669 µM, an IC50 [5] of 0.641 µM and an IC50 [6] of 0.869 µM. The viability, T/C (second compound 0.00316 µM, first compound 0.0316 µM) was 91.6%, the viability, T/C (second compound 0.00316 µM, first compound 0.1 µM) was 81.3% and the viability, T/C (second compound 0.00316 µM, first compound 0.316 µM) was 70%. It also gave a viability, T/C (second compound 0.00316 µM, first compound 1 µM) of 42.9%, a viability, T/C (second compound 0.00316 µM, first compound 3.16 µM) of 18.8% and a viability, T/C (second compound 0.00316 µM, first compound 10 µM) of 8.64%. The viability, T/C (second compound 0.01 µM, first compound 0.0316 µM) was 88.5%, the viability, T/C (second compound 0.01 µM, first compound 0.1 µM) was 85.1% and the viability, T/C (second compound 0.01 µM, first compound 0.316 µM) was 75.1%. It also gave a viability, T/C (second compound 0.01 µM, first compound 1 µM) of 38.3%, a viability, T/C (second compound 0.01 µM, first compound 3.16 µM) of 19.2% and a viability, T/C (second compound 0.01 µM, first compound 10 µM) of 8.6%. For the same molecule, the viability, T/C (second compound 0.0316 µM, first compound 0.0316 µM) was 89%, the viability, T/C (second compound 0.0316 µM, first compound 0.1 µM) was 81.2% and the viability, T/C (second compound 0.0316 µM, first compound 0.316 µM) was 70.6%. The viability, T/C (second compound 0.0316 µM, first compound 1 µM) was 38.8%, the viability, T/C (second compound 0.0316 µM, first compound 3.16 µM) was 17.3% and the viability, T/C (second compound 0.0316 µM, first compound 10 µM) was 6.65%. It also gave a viability, T/C (second compound 0.1 µM, first compound 0.0316 µM) of 91.5%, a viability, T/C (second compound 0.1 µM, first compound 0.1 µM) of 77.9% and a viability, T/C (second compound 0.1 µM, first compound 0.316 µM) of 65.4%. It also gave a viability, T/C (second compound 0.1 µM, first compound 1 µM) of 44.7%, a viability, T/C (second compound 0.1 µM, first compound 3.16 µM) of 17.2% and a viability, T/C (second compound 0.1 µM, first compound 10 µM) of 8.54%. For the same molecule, the viability, T/C (second compound 0.316 µM, first compound 0.0316 µM) was 91.5%, the viability, T/C (second compound 0.316 µM, first compound 0.1 µM) was 79.7% and the viability, T/C (second compound 0.316 µM, first compound 0.316 µM) was 67.2%. For the same molecule, the viability, T/C (second compound 0.316 µM, first compound 1 µM) was 40.1%, the viability, T/C (second compound 0.316 µM, first compound 3.16 µM) was 18.2% and the viability, T/C (second compound 0.316 µM, first compound 10 µM) was 8.75%. For the same molecule, the viability, T/C (second compound 1 µM, first compound 0.0316 µM) was 89.2%, the viability, T/C (second compound 1 µM, first compound 0.1 µM) was 74.2% and the viability, T/C (second compound 1 µM, first compound 0.316 µM) was 72.2%. The viability, T/C (second compound 1 µM, first compound 1 µM) was 47.9%, the viability, T/C (second compound 1 µM, first compound 3.16 µM) was 20.7% and the viability, T/C (second compound 1 µM, first compound 10 µM) was 7.97%.
